In PubChem BioAssay (NCI) one finds GI50 and TGI data, which are given here for nine molecules.

Where “and” joins values, the source holds several entries; their conditions need not be identical. Equal entries are not always repeated.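 Method: 48-hour compound exposure of cells in 96-well plates, five concentrations, linear interpolation of endpoints. Here, GI50 denotes the concentration required for 50% inhibition of growth. TGI: concentration producing complete growth inhibition.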

Some test systems named below: UO-31 renal; HCT-116 colon; SK-MEL-2 melanoma; HL-60(TB) leukemia; SK-OV-3 ovarian; SF-268 CNS; PC-3 prostate; SK-MEL-5 melanoma; NCI/ADR-RES ovarian; SF-295 CNS.
Common to all, as to assay: inhibition of tumour cell growth, NCI panel, 48 h

As to `COc1ccc(Nc2cc(C)nc(NCc3ccccc3)n2)cc1`, the GI50 in the assay with UO-31 renal is 2.77 µM; with HCT-116 colon, 2.49 µM; with SK-MEL-2 melanoma, 6.34 µM; in the assay with HL-60(TB) leukemia, 4.91 µM; with SK-OV-3 ovarian it was 8.84 µM; in the assay on SF-268 CNS it was 13.1 µM. For the same molecule, the GI50 with PC-3 prostate is 3.25 µM; in the assay on SK-MEL-5 melanoma it was 1.36 µM; in the assay on NCI/ADR-RES ovarian it was 2.92 µM; with SF-295 CNS, 2.57 µM. Further, the TGI in the assay on UO-31 renal turned out to be 15.9 µM; in the assay on HCT-116 colon, 13 µM; in the assay on SK-MEL-2 melanoma it was 23.8 µM; in the assay with HL-60(TB) leukemia, 27.6 µM; in the assay with SK-OV-3 ovarian, 23.8 µM; in the assay on SF-268 CNS, 36.3 µM. Also, the TGI was 19 µM with PC-3 prostate, 2.84 µM in the assay on SK-MEL-5 melanoma, 17.6 µM in the assay with NCI/ADR-RES ovarian and 15.3 µM with SF-295 CNS.

`O=[N+]([O-])c1ccc(C2=Nn3c(nnc3-c3ccc(Cl)cc3)SC2)o1`: the TGI came to 15.4 µM in the assay on UO-31 renal; 15.1 µM in the assay on HCT-116 colon; 27.1 µM in the assay on SK-MEL-2 melanoma; 6.28 µM with HL-60(TB) leukemia; 34.1 µM with SK-OV-3 ovarian; 30.2 µM in the assay on SF-268 CNS. Further, the TGI with PC-3 prostate amounted to 18.4 µM; in the assay on SK-MEL-5 melanoma, 25.3 µM; in the assay on NCI/ADR-RES ovarian, 45.1 µM; in the assay on SF-295 CNS, 23.5 µM.

For `CC1=CCCC2C1(C)CCC(C)C2(C)Cc1cc(O)ccc1O` (stereo not drawn), the TGI in the assay on UO-31 renal is 19.1 µM and 15.4 µM; in the assay on HCT-116 colon it was 24.8 µM and 15.7 µM; in the assay on SK-MEL-2 melanoma it was 27.9 µM and 24 µM; in the assay on HL-60(TB) leukemia, 15.2 µM and 4.61 µM; with SK-OV-3 ovarian it was 29.9 µM and 39.1 µM; with SF-268 CNS, 21.1 µM and 20.7 µM. Moreover, the TGI was 18.1 µM with PC-3 prostate; 27.7 µM and 24.9 µM with SK-MEL-5 melanoma; 18.2 µM and 18.9 µM with NCI/ADR-RES ovarian; 23.5 µM and 21 µM in the assay on SF-295 CNS. Besides, the GI50 with HCT-116 colon was 9.85 µM; in the assay with HL-60(TB) leukemia, 2.67 µM; in the assay on SF-268 CNS, 5.4 µM; with SK-MEL-5 melanoma, 10.6 µM; in the assay with SF-295 CNS, 10.4 µM.

On to `C[C@]12CC[C@@H]3c4cc(O)c(O)cc4CC[C@H]3[C@@H]1CC[C@@H]2O`, for which the GI50 was 5.68 µM in the assay on UO-31 renal; 4.4 µM in the assay on HCT-116 colon; 3.23 µM in the assay on SK-MEL-2 melanoma; 2.33 µM in the assay on HL-60(TB) leukemia; 4.19 µM in the assay on SK-OV-3 ovarian; 5.81 µM in the assay with SF-268 CNS. The GI50 with PC-3 prostate was 10.5 µM; in the assay with SK-MEL-5 melanoma it was 3.54 µM; with NCI/ADR-RES ovarian, 1.3 µM; in the assay with SF-295 CNS it was 7.19 µM. For the same molecule, the TGI was 77.8 µM in the assay on UO-31 renal; over 51.4 µM with HCT-116 colon; 22.2 µM in the assay on SK-MEL-2 melanoma; 24.7 µM with HL-60(TB) leukemia; 61.8 µM in the assay on SK-OV-3 ovarian; over 83.2 µM with SF-268 CNS. Moreover, the TGI in the assay with PC-3 prostate was over 100 µM; in the assay with SK-MEL-5 melanoma, 16.1 µM; with NCI/ADR-RES ovarian, over 45.4 µM; with SF-295 CNS it was 32.9 µM.

In the case of `C[C@@H]1CCC([C@@H](C)[C@H]2CC[C@H]3[C@@H]4CC[C@H]5C[C@@H](O)CC[C@]5(C)[C@H]4CC[C@]23C)=NC1`, the TGI with UO-31 renal is 46.3 µM; in the assay with HCT-116 colon it was over 100 µM; with SK-MEL-2 melanoma it was 34.8 µM; in the assay on HL-60(TB) leukemia it was over 21.2 µM; in the assay with SK-OV-3 ovarian it was over 100 µM; in the assay with SF-268 CNS it was over 100 µM. Besides, the TGI is over 100 µM with PC-3 prostate, 42.8 µM in the assay with SK-MEL-5 melanoma, over 100 µM in the assay with NCI/ADR-RES ovarian and over 43.6 µM in the assay on SF-295 CNS.

Take `COC(=O)C1=CO[C@@H](OC2OC(CO)C(O)C(O)C2O)[C@H]2[C@@H](C)[C@@H](O)[C@@H](O)[C@@H]12` (stereo partly drawn): the TGI in the assay with UO-31 renal, in the assay with HCT-116 colon, with SK-MEL-2 melanoma, in the assay with HL-60(TB) leukemia, in the assay with SK-OV-3 ovarian and with SF-268 CNS was over 100 µM throughout. For the same molecule, the TGI in the assay on PC-3 prostate, in the assay with SK-MEL-5 melanoma, with NCI/ADR-RES ovarian and with SF-295 CNS was over 100 µM in each case.

As for `CC(=O)Nc1c(I)c(NC(C)=O)c(I)c(C(=O)O)c1I`, the GI50 in the assay on UO-31 renal, in the assay with HCT-116 colon, with SK-MEL-2 melanoma, in the assay with HL-60(TB) leukemia, in the assay with SK-OV-3 ovarian and in the assay on PC-3 prostate was over 100 µM in each case. The GI50 with SK-MEL-5 melanoma and in the assay on NCI/ADR-RES ovarian was over 100 µM throughout. The TGI with UO-31 renal, with HCT-116 colon, in the assay with SK-MEL-2 melanoma, with HL-60(TB) leukemia, in the assay on SK-OV-3 ovarian and in the assay with PC-3 prostate was over 100 µM each time. For the same molecule, the TGI in the assay with SK-MEL-5 melanoma and with NCI/ADR-RES ovarian was over 100 µM in each case.

As to `CN1CCC2(CC1)NC(=O)c1c(c3ccc(Cl)c(Cl)c3n1C)C2C#N` (stereo not drawn), the GI50 with UO-31 renal was 4.21 µM; with HCT-116 colon, 3.11 µM; with HL-60(TB) leukemia it was 3.91 µM; in the assay on SK-OV-3 ovarian, 14.9 µM; in the assay with SF-268 CNS it was 4.54 µM; in the assay with PC-3 prostate, 5.7 µM. The GI50 in the assay with SK-MEL-5 melanoma is 2.11 µM; in the assay on NCI/ADR-RES ovarian, 7.46 µM; in the assay with SF-295 CNS, 10 µM. Further, the TGI in the assay with UO-31 renal was 17.4 µM; in the assay with HCT-116 colon it was 9.17 µM; in the assay with HL-60(TB) leukemia it was over 22.6 µM; with SK-OV-3 ovarian, 32 µM; with SF-268 CNS, 15.2 µM; in the assay with PC-3 prostate, 21.1 µM. Besides, the figures for the TGI in the assay with SK-MEL-5 melanoma, in the assay on NCI/ADR-RES ovarian and in the assay with SF-295 CNS were 5.18 µM, 23 µM and 25.3 µM, respectively.

Consider `N#Cc1c(N)n2c(nc1=Nc1ccc(Cl)cc1)sc1cc(Cl)ccc12`, for which the GI50 with HCT-116 colon was 6.12 µM; in the assay with SK-MEL-2 melanoma, 2.01 µM; in the assay on SK-OV-3 ovarian, 7.14 µM and 5.3 µM; in the assay on SF-268 CNS, 4.08 µM; in the assay with PC-3 prostate it was 4.65 µM; in the assay on SK-MEL-5 melanoma it was 8 µM. In addition, the GI50 in the assay on NCI/ADR-RES ovarian was 4.69 µM; in the assay with SF-295 CNS, 4.12 µM and 3.04 µM. Further, the TGI with HCT-116 colon was over 100 µM; with HL-60(TB) leukemia it was over 100 µM; in the assay on SK-OV-3 ovarian it was over 100 µM; with SF-268 CNS it was over 100 µM; in the assay with NCI/ADR-RES ovarian, 34.8 µM; with SF-295 CNS, 42.9 µM.
